IC50 data for 12 compounds are collected here from US20230348437A1, “COMPOUNDS, COMPOSITIONS AND METHODS” (Denali Therapeutics Inc., priority 2020, published 2023).

Experiment [1] has as its system NLRP3 (IL-1β release from THP-1 cells). The experiment in a line: IL-1β detection in IFN-γ differentiated THP-1 cells, LPS induction and ATP, 96 well format. In kind it is cell-based. As to conditions: Homo sapiens, IFN-γ 25 ng/mL, LPS 50 ng/mL, ATP 5 mM, IL-1β ELISA, read-out: Activity (IC50 class). As for the experimental part:
(§1) Compounds as provided herein were tested in the following assay. Cell culture medium employed contained RPMI 1640 medium (89%), FBS (10%), Pen/Strep (1%), and 2-mercaptoethanol (0.05 mM). Freezing medium was made up of 90% FBS and 10% DMSO. THP-1 cells were removed from the liquid nitrogen and placed into a 37° C. water bath to thaw, until signs of ice dissipated. The cells were then added to 9 mL of warm cell culture medium and centrifuged for 5 minutes at 1000 rpm. The supernatant was discarded, and the cells were resuspended in new cell culture medium. The THP-1 cells were then split and cultured in the cell culture medium, being passaged every 2-3 days (5×10^5 cells/mL passaged every two days, 3×10^5 cells/mL passaged every three days). Cell density was maintained between 5×10^5-1.5×10^6 viable cells/mL.
To freeze, cells were resuspended with fresh freezing medium, adjusting the cell density to between 3×10^6-10×10^6 cells/mL. The cell suspension was partitioned into 1 mL aliquots per vial, and the vials were transferred to a -80° C. freezer. After one day at -80° C., the cell vials were transferred to liquid nitrogen freezer for storage.
PBST solution was prepared by mixing 3600 mL of water, 400 mL of 10X PBS, and 4 mL of Tween 20. IFN-γ solution was reconstituted with 100 µL of water to obtain a 1 mg/mL solution, which was then diluted with 0.1 % BSA to provide a 100 ng/mL solution. The IFN-γ solution was stored at -20° C. LPS was reconstituted with 1 mL of PBS solution to obtain a 1 mg/mL stock solution, which was further diluted to 50 ng/mL with serum-free medium. The LPS solution was stored at 4° C.
The 96 well plates were then incubated at 37° C. under a humidified atmosphere of 5% CO2 for 24 h.
LPS induction: When IFN-γ treatment was completed, the supernatants were discarded by hand. 100 µL of a 1X solution of LPS in serum-free medium (50 ng/mL) was added. The plates were incubated in a 37° C. incubator under a humidified atmosphere of 5% CO2 for 4 h. Sample compounds were dissolved in DMSO and the compound solutions were dispensed to the wells using a Tecan D300e digital dispenser. The final concentration of DMSO for each well was 0.5%. The plates were then incubated at 37° C. under a humidified atmosphere of 5% CO2 for 1 h. 20 µL of a 6X solution of ATP was added (final concentration per well: 5 mM), and the plates incubated at 37° C. under a humidified atmosphere of 5% CO2 for 1 h. The supernatants were then collected and analyzed using an IL-Iβ detection kit. If needed, the test samples could be stored at -20° C. until analyzed.
Compound dilution: Compound solution source plates (20 µL of a 10 mM solution of each compound was delivered to the specified wells and stored in a nitrogen cabinet until tested.
Coat Elisa plate: The captured antibody (mAb Mt175) was diluted in PBS to a concentration of 2 µg/mL, and then used to coat the ELISA plate (SIGMA-P6366) overnight at 4° C.
The antibody coat was discarded and the plate was washed 4 times with PBST. The plate was blocked by adding 25 µL/well of blocking buffer (LiCor-927-40000) with 0.1% Tween 20, then incubated for 1 h at room temperature. The blocking buffer was then discarded and the plate was washed 4 times with PBST.
One hour before test sample addition, the sample plates were allowed to thaw at room temperature, centrifuged at 1000 rpm for 1 minute, and shaken for 30 seconds. 25 µL/well of the test samples were transferred to the ELISA plate, and the plate was incubated for 2 h at room temperature.
The test samples were discarded and the ELISA plate was washed 4 times with PBST. 15 µL/well of mAb7P10-biotin at 0.5 µg/mL (1:1000) in blocking buffer was then added to the ELISA plate and it was incubated for 1 h at room temperature.
The antibody was discarded and the ELISA plate was washed 4 times with PBST. Then 15 µL/well of streptavidin-HRP diluted 1:1000 in blocking buffer was added to the ELISA plate and it was allowed to incubate for 1 h at room temperature.
On the technique in general: ELISA stands for enzyme-linked immunosorbent assay.

Experiment [2] concerns NLRP3 (IL-1β secretion from THP-1 cells). Kind of experiment: IL-1β secretion assay in 384-well plates, PMA differentiated THP-1 cells, LPS and nigericin stimulation. In kind it is cell-based. The note with it: Homo sapiens; THP-1 cells, PMA 5 ng/mL, LPS 25 ng/mL, nigericin, IL-1β ELISA, 384-well; read-out: Activity. The protocol:
as §1, with “Cell culture medium employed contained RPMI 1640 medium (89%), FBS (10%), Pen/Strep (1%), and 2-mercaptoethanol (0.05 mM).” left out
PMA was dissolved in DMSO to make a stock solution at 5 mg/mL and stored in 10 µl aliquots at -20° C. for single use. PMA is added to normal growth medium. LPS was diluted with 1 mL of water solution to provide a 1 mg/mL stock solution and stored in 15 µl aliquots at -20° C. for single use. Nigericin is diluted in ice cold 100% ethanol to 5 mg/mL (6.7 mM) and stored in 75 µL aliquots at -20° C. for single use. […] The two control conditions used to qualify and normalize test compound dose-response curves were as follows: High Control = 25 ng/mL LPS, 5 µM Nigericin, 0.5% DMSO, Low Control = 25 ng/mL, LPS, 0.5% DMSO.
THP-1 cells were diluted to provide a suspension at a concentration of 1.0×10^6 cells/mL with the total volume of suspension required to enable the desired number of assay plates. The growth media was supplemented with PMA (5 ng/mL final concentration) and the cells were incubated at 37° C. under a humidified atmosphere of 5% CO2 for 40 h.
All media was carefully aspirated from each culture flask. The cells were washed carefully with 1x DPBS. The cells were then briefly digested with trypsin LE for 5 minutes at 23° C. and immediately resuspended in cell growth media. After resuspension, the cells were centrifuged at 1000 rpm for 3 minutes and the supernatant was discarded. The cells were resuspended in DPBS and once again centrifuged at 1000 rpm for 5 minutes. The supernatant was discarded and the cell pellet was resuspended in serum-free media supplemented with LPS (25 ng/mL final concentration) to enable the distribution of 30 K THP-1 cells within 45 µL of media into each well of 384-well PDL-coated plates. The 384-well plates were then incubated at 37° C. under a humidified atmosphere of 5% CO2 for 2 h. Following this period, test compounds were dispensed by Tecan across the desired concentration range with all wells normalized to a final 0.5 % DMSO concentration. The plates were then incubated at 37° C. under a humidified atmosphere of 5% CO2 for 1 h. Following this period, 5 µL of the […] nigericin stock solution was added to each of the appropriate wells and plates were centrifuged at 1000 rpm for 30 seconds. The plates were the immediately reintroduced to the incubator at 37° C. under a humidified atmosphere of 5% CO2 for 2 h. After this time, 35 µL/well of supernatant was collected and transferred into v-bottom plate and centrifuged at 1000 rpm for 1 minute. These supernatant aliquots were analyzed using an IL-Iβ detection kit as described below. If needed, the test samples could be snap frozen and stored at -80° C. until analyzed.
To prepare each ELISA plate, capture antibody (mAb Mt175) was diluted with PBS to a final concentration of 2 µg/mL and then 20 µL of this solution was added to each well of the ELISA plate. Each plate was allowed to incubate overnight at 4° C. The next day, the capture antibody solution was removed and discarded. […] Each ELISA plate was then allowed to incubate for 1 hour at 23° C. After this time, the blocking buffer was removed and discarded. Each ELISA plate was washed 4 times with PBST. During this time, the v-bottomed plates containing the supernatant aliquots from the assay run were centrifuged at 300 g for 5 minutes before transferring 15 µL/well of the supernatant sample to each ELISA plate. […]

pIC50: −log10 of the molar value. A value given as a limit tells only on which side of the number the result lay.

In the case of `Cc1cccc(-c2cc(=O)n(CC(=O)N[C@H]3C[C@@](C)(O)C3)nc2C(C)C)c1` [Example 9, N-(cis-3-hydroxy-3-methylcyclobutyl)-2-(3-isopropyl-6-oxo-4-(m-tolyl)pyridazin-1(6H)-yl)acetamide], the pIC50 in experiment [1] is above 5.00; in experiment [2] it was 5.64.

Regarding `CC(C)c1nn(CC(=O)N[C@H]2C[C@@](C)(O)C2)c(=O)cc1-c1ccc(F)cc1` [Example 10, 2-(4-(4-fluorophenyl)-3-isopropyl-6-oxopyridazin-1(6H)-yl)-N-(cis-3-hydroxy-3-methylcyclobutyl)acetamide], the pIC50 in experiment [1] is 4.82 to 5.00; in experiment [2], 4.30.

For `CC(C)c1nn(CC(=O)N[C@H]2C[C@@](C)(O)C2)c(=O)cc1-c1ccccc1F` [Example 11, 2-(4-(2-fluorophenyl)-3-isopropyl-6-oxopyridazin-1(6H)-yl)-N-(cis-3-hydroxy-3-methylcyclobutyl)acetamide], the pIC50 in experiment [1] is above 5.00; in experiment [2], 5.54.

For `CC(C)c1nn(CC(=O)N[C@H]2C[C@@](C)(O)C2)c(=O)cc1-c1cccc(F)c1` [Example 12, 2-(4-(3-fluorophenyl)-3-isopropyl-6-oxopyridazin-1(6H)-yl)-N-(cis-3-hydroxy-3-methylcyclobutyl)acetamide], the pIC50 is above 5.00 in experiment [1] and 5.78 in experiment [2].

`CC(C)c1nn(CC(=O)N[C@H]2C[C@@](C)(O)C2)c(=O)cc1-c1cccc(C(F)(F)F)c1` [Example 13, N-(cis-3-hydroxy-3-methylcyclobutyl)-2-(3-isopropyl-6-oxo-4-(3-(trifluoromethyl)pheny 1)pyridazin-1(6H)-yl)acetamide]: the figures for the pIC50 in experiment [1] and in experiment [2] were above 5.00 and 4.66, respectively.

Consider `CC(C)c1nn(CC(=O)N[C@H]2C[C@@](C)(O)C2)c(=O)cc1-c1cccc(Br)c1` [Example 14, 2-(4-(3-bromophenyl)-3-isopropyl-6-oxopyridazin-1(6H)-yl)-N-(cis-3-hydroxy-3-methylcyclobutyl)acetamide], for which the values for the pIC50 in experiment [1] and in experiment [2] were above 5.00 and 5.83, respectively.

For `CC(C)c1nn(CC(=O)N[C@H]2C[C@@](C)(O)C2)c(=O)cc1-c1cccc(Cl)c1Cl` [Example 15, 2-(4-(2,3-dichlorophenyl)-3-isopropyl-6-oxopyridazin-1(6H)-yl)-N-(cis-3-hydroxy-3-methylcyclobutyl)acet amide], the pIC50 was above 5.00 in experiment [1] and 5.45 in experiment [2].

Consider `CC(C)c1nn(CC(=O)N[C@H]2C[C@@](C)(O)C2)c(=O)cc1-c1cc(Cl)ccc1Cl` [Example 16, 2-(4-(2,5-dichlorophenyl)-3-isopropyl-6-oxopyridazin-1(6H)-yl)-N-(cis-3-hydroxy-3-methylcyclobutyl)acet amide], for which the pIC50 in experiment [1] was above 5.00; in experiment [2] it was 5.94.

Take `CC(C)c1nn(CC(=O)N[C@H]2C[C@@](C)(O)C2)c(=O)cc1-c1ccccn1` [Example 17]: the values for the pIC50 in experiment [1] and in experiment [2] were above 5.00 and 4.71, respectively.

On to `C[C@]1(O)C[C@@H](NC(=O)Cn2nc(Cl)c(-c3ccccc3)cc2=O)C1` [Example 18, 2-(3-chloro-6-oxo-4-phenylpyridazin-1(6H)-yl)-N-(cis-3-hydroxy-3-methylcyclobutyl)acetamide], for which the pIC50 in experiment [1] was below 4.82; in experiment [2], 4.30.

Consider `COc1nn(CC(=O)N[C@H]2C[C@@](C)(O)C2)c(=O)cc1-c1ccccc1` [Example 19], for which the pIC50 in experiment [1] is above 5.00; in experiment [2], 4.66.

On to `CC(C)c1nn(CC(=O)N[C@H]2C[C@@](C)(O)C2)c(=O)nc1-c1ccccc1` [Example 20, N-(cis-3-hydroxy-3-methylcyclobutyl)-2-(6-isopropyl-3-oxo-5-phenyl-1,2,4-triazin-2(3H)-yl)acetamide], for which the results for the pIC50 in experiment [1] and in experiment [2] were above 5.00 and 4.62, respectively.
